Patent US20230095836A1, “SUBSTITUTED 5,6-DIPHENYL-3(2H)-PYRIDAZINONES FOR USE AS FUNGICIDES” (FMC Corporation, priority 2020, published 2023)

Columns and labels:
Assay type in all cases: in vivo
[1] = test system: Puccinia recondita f. sp. tritici; experiment: Test B: test solution sprayed on wheat seedlings, inoculated next day with Puccinia recondita f. sp. tritici (wheat leaf rust); disease rating (100 = 100% disease control, 0 = no control; dash = not tested)
Source text: The resulting test suspensions were then used in Tests A-F. The test solution was sprayed to the point of run-off on wheat seedlings. […] A rating of 100 indicates 100% disease control and a rating of 0 indicates no disease control (relative to the controls). A dash (—) indicates the compound was not tested.

[2] = test system: Botrytis cinerea; experiment: Test E: test suspension sprayed on tomato seedlings, inoculated next day with Botrytis cinerea (tomato Botrytis); visual disease rating (100 = 100% disease control, 0 = no control; dash = not tested)
Procedure: (§1) The resulting test suspensions were then used in Tests A-F. The test suspension was sprayed to the point of run-off on tomato seedlings. The following day the seedlings were inoculated with a spore suspension of Botrytis cinerea (the causal agent of tomato Botrytis) and incubated in a saturated atmosphere at 20° C. for 48 h, and then moved to a growth chamber at 24° C. for 3 days, after which time visual disease ratings were made. A rating of 100 indicates 100% disease control and a rating of 0 indicates no disease control (relative to the controls). A dash (—) indicates the compound was not tested.

[3] = test system: Blumeria graminis f. sp. tritici; experiment: Test C: test suspension sprayed on wheat seedlings, inoculated next day with Blumeria graminis f. sp. tritici (wheat powdery mildew); visual disease rating (100 = 100% disease control, 0 = no control; dash = not tested)
Procedure: The resulting test suspensions were then used in Tests A-F. The test suspension was sprayed to the point of run-off on wheat seedlings. The following day the seedlings were inoculated with a spore dust of Blumeria graminis f. sp. tritici, (also known as Erysiphe graminis f. sp. tritici, the causal agent of wheat powdery mildew) and incubated in a growth chamber at 20° C. for 8 days, after which time visual disease ratings were made. A rating of 100 indicates 100% disease control and a rating of 0 indicates no disease control (relative to the controls). A dash (—) indicates the compound was not tested.

[4] = test system: Phakopsora pachyrhizi; experiment: Test D: test solution sprayed on soybean seedlings, inoculated next day with Phakopsora pachyrhizi (Asian soybean rust); visual disease rating (100 = 100% disease control, 0 = no control; dash = not tested)
Source text: General protocol for preparing test suspensions for Tests A-F: the test compounds were first dissolved in acetone in an amount equal to 3% of the final volume and then suspended at the desired concentration (in ppm) in acetone and purified water (50/50 mix by volume) containing 250 ppm of the surfactant PEG400 (polyhydric alcohol esters). The resulting test suspensions were then used in Tests A-F.
The test solution was sprayed to the point of run-off on soybean seedlings. The following day the seedlings were inoculated with a spore suspension of Phakopsora pachyrhizi (the causal agent of Asian soybean rust) and incubated in a saturated atmosphere at 22° C. for 24 h and then moved to a growth chamber at 22° C. for 8 days, after which time visual disease ratings were made.
A rating of 100 indicates 100% disease control and a rating of 0 indicates no disease control (relative to the controls). A dash (—) indicates the compound was not tested.

[5] = test system: Zymoseptoria tritici; experiment: Test A: test solution sprayed on wheat seedlings, inoculated next day with Zymoseptoria tritici (wheat leaf blotch); disease rating (100 = 100% disease control, 0 = no control; dash = not tested)
Procedure: The resulting test suspensions were then used in Tests A-F. The test solution was sprayed to the point of run-off on wheat seedlings. The following day the seedlings were inoculated with a spore suspension of Zymoseptoria tritici (the causal agent of wheat leaf blotch) and incubated in a saturated atmosphere at 24° C. for 48 h, and then moved to a growth chamber at 20° C. for 17 days, after which time disease ratings were made. A rating of 100 indicates 100% disease control and a rating of 0 indicates no disease control (relative to the controls). A dash (—) indicates the compound was not tested.

[6] = test system: Alternaria solani; experiment: Test F: test suspension sprayed on tomato seedlings, inoculated next day with Alternaria solani (tomato early blight); visual disease rating (100 = 100% disease control, 0 = no control; dash = not tested)
Procedure: as §1, with “Alternaria solani” for “Botrytis cinerea”, “early blight)” for “Botrytis)”, “27°” for “20°”, “20°” for “24°”

COc1cc(F)c(Cl)c(-c2nn(C)c(=O)c(Cl)c2-c2ccc(F)cc2Cl)c1 [Compound 157]
Test B disease control rating ([1]; 50 ppm): 100%
Test E disease control rating ([2]; 50 ppm): 99%
Test C disease control rating ([3]; 50 ppm): 100%
Test D disease control rating ([4]; 50 ppm): 100%
Test A disease control rating ([5]; 50 ppm): 98%
Test F disease control rating ([6]; 50 ppm): 100%

COc1cc(OC)c(Br)c(-c2nn(C)c(=O)c(Br)c2-c2ccc(F)cc2Cl)c1 [Compound 61]
Test B disease control rating ([1]; 50 ppm): 100%
Test E disease control rating ([2]; 50 ppm): 100%
Test C disease control rating ([3]; 50 ppm): 94%
Test D disease control rating ([4]; 50 ppm): 99%
Test A disease control rating ([5]; 50 ppm): 100%
Test F disease control rating ([6]; 50 ppm): 99%

COc1cc(F)c(Cl)c(-c2nn(C)c(=O)c(OC)c2-c2ccc(F)cc2Cl)c1 [Compound 164]
Test B disease control rating ([1]; 50 ppm): 100%
Test E disease control rating ([2]; 50 ppm): 99%
Test C disease control rating ([3]; 50 ppm): 99%
Test D disease control rating ([4]; 50 ppm): 100%
Test A disease control rating ([5]; 50 ppm): 100%
Test F disease control rating ([6]; 50 ppm): 100%

CCn1nc(-c2c(F)cccc2F)c(-c2cc(OC)cc(OC)c2)cc1=O [Compound 4, 6-(2,6-difluorophenyl)-5-(3,5-dimethoxyphenyl)-2-ethyl-3(2H)-pyridazinone]
pest or weed control at 250 ppm ([1]; 250 ppm): 0%
pest or weed control at 250 ppm ([2]; 250 ppm): 9%
pest or weed control at 250 ppm ([3]; 250 ppm): 0%
pest or weed control at 250 ppm ([4]; 250 ppm): 0%
pest or weed control at 250 ppm ([5]; 250 ppm): 66%
pest or weed control at 250 ppm ([6]; 250 ppm): 0%

COc1ccc(Cl)c(-c2nn(C)c(=O)c(Cl)c2-c2ccc(F)cc2F)c1 [Compound 185]
Test B disease control rating ([1]; 50 ppm): 100%
Test E disease control rating ([2]; 50 ppm): 96%
Test C disease control rating ([3]; 50 ppm): 99%
Test D disease control rating ([4]; 50 ppm): 100%
Test A disease control rating ([5]; 50 ppm): 100%
Test F disease control rating ([6]; 50 ppm): 100%

COc1cc(OC)cc(-c2nn(C)c(=O)c(C)c2-c2c(F)cccc2F)c1 [Compound 21, 5-(2,6-difluorophenyl)-6-(3,5-dimethoxyphenyl)-2,4-dimethyl-3 (2H)-pyridazinone]
pest or weed control at 250 ppm ([1]; 250 ppm): 100%
pest or weed control at 250 ppm ([2]; 250 ppm): 100%
pest or weed control at 250 ppm ([3]; 250 ppm): 100%
pest or weed control at 250 ppm ([4]; 250 ppm): 100%
pest or weed control at 250 ppm ([5]; 250 ppm): 100%
pest or weed control at 250 ppm ([6]; 250 ppm): 99%

COc1cc(OC)c([N+](=O)[O-])c(-c2nn(C)c(=O)cc2-c2c(F)cccc2F)c1Cl [Compound 31]
Test B disease control rating ([1]; 50 ppm): 9%
Test E disease control rating ([2]; 50 ppm): 0%
Test C disease control rating ([3]; 50 ppm): 0%
Test D disease control rating ([4]; 50 ppm): 0%
Test A disease control rating ([5]; 50 ppm): 0%
Test F disease control rating ([6]; 50 ppm): 0%

CCc1c(-c2ccc(F)cc2Cl)c(-c2c(Cl)c(OC)cc(OC)c2Br)nn(C)c1=O [Compound 45]
Test B disease control rating ([1]; 50 ppm): 0%
Test E disease control rating ([2]; 50 ppm): 0%
Test C disease control rating ([3]; 50 ppm): 69%
Test D disease control rating ([4]; 50 ppm): 0%
Test A disease control rating ([5]; 50 ppm): 0%
Test F disease control rating ([6]; 50 ppm): 0%

COc1ccc(Cl)c(-c2nn(C)c(=O)c(OC)c2-c2ccc(F)cc2Br)c1 [Compound 103]
Test B disease control rating ([1]; 50 ppm): 100%
Test E disease control rating ([2]; 50 ppm): 91%
Test C disease control rating ([3]; 50 ppm): 100%
Test D disease control rating ([4]; 50 ppm): 97%
Test A disease control rating ([5]; 50 ppm): 100%
Test F disease control rating ([6]; 50 ppm): 99%

COc1c(-c2ccc(F)cc2Cl)c(-c2cccc(F)c2Cl)nn(C)c1=O [Compound 154]
Test B disease control rating ([1]; 50 ppm): 100%
Test E disease control rating ([2]; 50 ppm): 100%
Test C disease control rating ([3]; 50 ppm): 100%
Test D disease control rating ([4]; 50 ppm): 87%
Test A disease control rating ([5]; 50 ppm): 100%
Test F disease control rating ([6]; 50 ppm): 100%

Cn1nc(-c2cccc(F)c2Cl)c(-c2c(F)cccc2F)cc1=O [Compound 29]
Test B disease control rating ([1]; 250 ppm): 98%
Test E disease control rating ([2]; 250 ppm): 100%
Test C disease control rating ([3]; 250 ppm): 99%
Test D disease control rating ([4]; 250 ppm): 25%
Test A disease control rating ([5]; 250 ppm): 100%
Test F disease control rating ([6]; 250 ppm): 0%

Cn1nc(-c2ccc(F)cc2Cl)c(-c2ccc(F)cc2Cl)c(C(C)(C)O)c1=O [Compound 123]
Test B disease control rating ([1]; 50 ppm): 0%
Test E disease control rating ([2]; 50 ppm): 0%
Test C disease control rating ([3]; 50 ppm): 0%
Test D disease control rating ([4]; 50 ppm): 68%
Test A disease control rating ([5]; 50 ppm): 0%
Test F disease control rating ([6]; 50 ppm): 0%

Cn1nc(-c2cccc(F)c2Cl)c(-c2ccc(F)cc2Cl)c(Cl)c1=O [Compound 145]
Test B disease control rating ([1]; 50 ppm): 100%
Test E disease control rating ([2]; 50 ppm): 100%
Test C disease control rating ([3]; 50 ppm): 100%
Test D disease control rating ([4]; 50 ppm): 99%
Test A disease control rating ([5]; 50 ppm): 100%
Test F disease control rating ([6]; 50 ppm): 100%

CCOC(=O)c1c(-c2ccc(F)cc2Cl)c(-c2ccc(F)cc2Cl)nn(C)c1=O [Compound 143]
Test B disease control rating ([1]; 250 ppm): 80%
Test E disease control rating ([2]; 250 ppm): 0%
Test C disease control rating ([3]; 250 ppm): 100%
Test D disease control rating ([4]; 250 ppm): 0%
Test A disease control rating ([5]; 250 ppm): 6%
Test F disease control rating ([6]; 250 ppm): 0%

Cn1nc(-c2ccc(F)cc2Cl)c(-c2ccc(F)cc2Cl)c(CO)c1=O [Compound 168]
Test B disease control rating ([1]; 50 ppm): 96%
Test E disease control rating ([2]; 50 ppm): 81%
Test C disease control rating ([3]; 50 ppm): 72%
Test D disease control rating ([4]; 50 ppm): 0%
Test A disease control rating ([5]; 50 ppm): 100%
Test F disease control rating ([6]; 50 ppm): 0%

CCc1c(-c2ccc(F)cc2Cl)c(-c2ccc(F)cc2Cl)nn(C)c1=O [Compound 167]
Test B disease control rating ([1]; 50 ppm): 100%
Test E disease control rating ([2]; 50 ppm): 86%
Test C disease control rating ([3]; 50 ppm): 100%
Test D disease control rating ([4]; 50 ppm): 0%
Test A disease control rating ([5]; 50 ppm): 100%
Test F disease control rating ([6]; 50 ppm): 100%

COc1cc(OC)cc(C2=NN(C)C(=O)CC2c2ccc(F)cc2Cl)c1 (stereo not drawn) [Compound 20]
Test B disease control rating ([1]; 250 ppm): 9%
Test E disease control rating ([2]; 250 ppm): 31%
Test C disease control rating ([3]; 250 ppm): 21%
Test D disease control rating ([4]; 250 ppm): 0%
Test A disease control rating ([5]; 250 ppm): 51%
Test F disease control rating ([6]; 250 ppm): 0%

COc1ccc(Cl)c(C2=NN(C)C(=O)C(C)C2c2c(F)cccc2F)c1 (stereo not drawn) [Compound 208]
Test B disease control rating ([1]; 50 ppm): 100%
Test E disease control rating ([2]; 50 ppm): 100%
Test C disease control rating ([3]; 50 ppm): 99%
Test D disease control rating ([4]; 50 ppm): 0%
Test A disease control rating ([5]; 50 ppm): 96%
Test F disease control rating ([6]; 50 ppm): 100%

COc1c(-c2ccc(F)cc2Cl)c(-c2ccc(F)cc2Br)nn(C)c1=O [Compound 162]
Test B disease control rating ([1]; 50 ppm): 89%
Test E disease control rating ([2]; 50 ppm): 99%
Test C disease control rating ([3]; 50 ppm): 98%
Test D disease control rating ([4]; 50 ppm): 13%
Test A disease control rating ([5]; 50 ppm): 100%
Test F disease control rating ([6]; 50 ppm): 16%

Cn1nc(-c2c(F)cccc2F)c(-c2c(F)cccc2F)cc1=O [Compound 5, 5,6-bis(2,6-difluorophenyl)-2-methyl-3(2H)-pyridazinone]
pest or weed control at 250 ppm ([1]; 250 ppm): 0%
pest or weed control at 250 ppm ([2]; 250 ppm): 99%
pest or weed control at 250 ppm ([3]; 250 ppm): 100%
pest or weed control at 250 ppm ([4]; 250 ppm): 0%
pest or weed control at 250 ppm ([5]; 250 ppm): 42%
pest or weed control at 250 ppm ([6]; 250 ppm): 0%

COc1ccc(C)c(-c2nn(C)c(=O)c(C)c2-c2ccc(F)cc2Cl)c1 [Compound 135]
Test B disease control rating ([1]; 50 ppm): 100%
Test E disease control rating ([2]; 50 ppm): 97%
Test C disease control rating ([3]; 50 ppm): 100%
Test D disease control rating ([4]; 50 ppm): 100%
Test A disease control rating ([5]; 50 ppm): 100%
Test F disease control rating ([6]; 50 ppm): 100%

COc1c(-c2ccc(F)cc2Cl)c(-c2cccc(Cl)c2Cl)nn(C)c1=O [Compound 108]
Test B disease control rating ([1]; 50 ppm): 100%
Test E disease control rating ([2]; 50 ppm): 98%
Test C disease control rating ([3]; 50 ppm): 100%
Test D disease control rating ([4]; 50 ppm): 70%
Test A disease control rating ([5]; 50 ppm): 100%
Test F disease control rating ([6]; 50 ppm): 99%

CCn1nc(-c2cc(OC)cc(OC)c2Br)c(-c2c(F)cccc2F)c(OC)c1=O [Compound 74]
Test B disease control rating ([1]; 50 ppm): 99%
Test E disease control rating ([2]; 50 ppm): 99%
Test C disease control rating ([3]; 50 ppm): 98%
Test D disease control rating ([4]; 50 ppm): 75%
Test A disease control rating ([5]; 50 ppm): 100%
Test F disease control rating ([6]; 50 ppm): 0%
